Experimental data from US6156724A, “Uses of didemnins as immunomodulating agents” (priority 1998, dated 2000).
Numbered stars: 1 amine (or outer) side, 2 acyl side, 3 side chain; on linkers, the order of the positions; unused ones are H or OH. Bridge positions count the residues as written; N and C are the ends. Square brackets hold non-standard residues; d marks the D form. Peptide text beside a SMILES is read from it. * marks the point of attachment. X5 = CC[C@@H](C)[C@@H](N[*:1])[C@@H](O)CC(=O)O[C@H](C(=O)[C@H](C)C(=O)[*:2])C(C)C; X1 = CC[C@H](C)[C@@H](N[*:1])[C@@H](O)CC(=O)O[C@H](C(=O)[C@H](C)C(=O)[*:2])C(C)C; X3 = CC[C@H](C)[C@H](N[*:1])[C@@H](O)CC(=O)O[C@H](C(=O)[C@H](C)C(=O)[*:2])C(C)C; X6 = CC[C@H](C)[C@@H](N[*:1])[C@H](O)CC(=O)O[C@H](C(=O)[C@H](C)C(=O)[*:2])C(C)C; NMeY = CN[C@@H](Cc1ccc(O)cc1)C(=O)O; dNMeL = CN[C@H](CC(C)C)C(=O)O; Cbz = O=C(OCc1ccccc1)*

Tests used:
[1] = system: concanavalin A-induced lymphoblasts (Con A splenocytes); assay: Lymphoblast viability (LbV) assay; conditions: Con A-stimulated splenocytes (lymphoblasts), MTT
[2] = system: murine splenocytes (Balb/c and C57B1/6); assay: Two-way mixed lymphocyte reaction (MLR) assay; conditions: Balb/c + C57B1/6 splenocytes, 96 h, [3H]thymidine; for IC50: read-out: two-way mixed lymphocyte reaction (MLR) suppression MLR, IC50;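 for all read-outs here: proliferation read as tritiated thymidine incorporation into newly made DNA after an overnight pulse, expressed as percent of control activity, IC50 interpolated per compound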
[3] = system: Balb/c splenocytes (resting lymphocytes); assay: Lymphocyte viability (LcV) assay; assay type: cell-based, murine; conditions: unstimulated Balb/c splenocytes, MTT
Procedure: Forty two (42) didemnin compounds (see Table 1) were evaluated for cytotoxicity to one of the lymphocyte populations in the MLR (i.e., Balb/c splenocytes). The purpose of the lymphocyte viability assay (LcV) is to measure metabolic activity in lymphocytes after they have been exposed to the compounds for the duration of an under conditions equivalent to the MLR. The inverse of the data yields cytotoxicity information about the compounds on murine lymphocytes. The rationale of using resting cells, in this case unstimulated lymphocytes, to measure cytotoxicity has a strategic importance. In the MLR the heterogenous cell populations are predominantly resting cells when the assay begins.
Test compounds were prepared in two sets as described above. Splenocytes were prepared as described previously from one murine strain (Balb/c), and a volume of 200 μL of the cell suspension was added to one set of test compounds and control wells.
Assay plates were incubated as in the MLR and then pulsed overnight 75 μL per well MTT-thiazolyl blue solution (150 μg). The plates were decanted and the resulting insoluble formazan crystals were dissolved in 200 μL of isopropyl alcohol. Absorbance at 570 nm was measured.
The LcV data were calculated as a percentage of basal metabolic activity, or percent viability, relative to BALB/c control, and an LC50 value was interpolated for each test compound.

[4] = system: CB6F1 mice grafted with Balb/c splenocytes; assay: Graft vs host reaction (GVHR) splenomegaly assay; assay type: in vivo; conditions: 200 mg/Kg/day, QD 1-7, ip
Procedure: Three representative compounds didemnin M (38), O-pGlu-DB (37), and didemnin B (1)-showing high (37,38) or moderate (1) in vivo immunosuppressive activity were subsequently evaluated in a multidose assay (0.16,0.016, and 0.0016 mg/kg per injection; qd 1-7) for their in vivo immunosuppressive effects on the GVHR splenomegaly assay.
Three didemnins (didemnin B, didemnin M, and pGlu-didemnin B) were evaluated in a modified Simonsen splenomegaly assay. Briefly, an F1 hybrid host animal is grated with immunocompetent spleen cells from the parent strain. The index used to measure the success of the GVHR is splenomegaly (increased spleen weight due to cellular proliferation of grafted lymphocytes). An index>1.3 (graft index) is considered to be a successful graft rejection of the recipient animal. Immunosuppression is considered as a reduction of the graft index.
On day O, CB6F1 female mice, 4 weeks of age, were grated by intraperitoneal (ip) injection of 50×10^5 splenocytes from BALB/c female mice in high-glucose ([…]) Dulbecco's modified Eagles medium. A syngeneic control group (CB6F1 --CB6F1) was similarly prepared and served as the negative control. Grafted mice were divided into treatment groups containing six mice each. Groups were injected ip with test compound (dissolved in vehicle; 1% abs. EtOH in sterile phosphate-buffered saline) at one of three dose levels (0.16, 0.016, and 0.0016 mg/kg per injection) in a multidose assay, cyclophosphamide (200 mg/kg per injection) or vehicle on days 1-7 (qd 1-7). On day 8 all groups were sacrificed, spleens were excised, and a graft index was calculated for each group by the following formula: [formula]

## CC[C@H](C)[C@H]1NC(=O)[C@@H](NC(=O)[C@@H](CC(C)C)NC)[C@@H](C)OC(=O)[C@H](Cc2ccc(OC)cc2)N(C)C(=O)[C@@H]2CCCN2C(=O)[C@H](CC(C)C)NC(=O)[C@@H](C)C(=O)[C@H](C(C)C)OC(=O)C[C@@H]1O [Compound 2, Didemnin A] (H-[dNMeL]T[X1]LP[NMeY](Me); ester 2-C)
[1]
  cytotoxicity to lymphocytes LbV, LC50: 0.015 µM
[2]
  two-way mixed lymphocyte reaction (MLR) suppression MLR, IC50: 0.00093 µg/mL
  IC50: 0.00098 µM
[3]
  cytoxicity to lymphocytes LcV, LC50: > 11.0 µM
[3]; highest concentration 10 μg/mL
  cytoxicity to lymphocytes LcV, LC50: > 10 µg/mL

## CC[C@H](C)[C@H]1NC(=O)[C@@H](NC(=O)[C@@H](CC(C)C)N(C)C(=O)OCc2ccccc2)[C@@H](C)OC(=O)[C@H](Cc2ccc(OC)cc2)N(C)C(=O)[C@@H]2CCCN2C(=O)[C@H](CC(C)C)NC(=O)[C@@H](C)C(=O)[C@H](C(C)C)OC(=O)C[C@@H]1O [Compound 3, Z-Didemnin A] (Cbz-[dNMeL]T[X1]LP[NMeY](Me); ester 2-C)
[1]
  cytotoxicity to lymphocytes LbV, LC50: 0.0019 µM
[2]
  two-way mixed lymphocyte reaction (MLR) suppression MLR, IC50: 0.0011 µg/mL
  IC50: 0.00102 µM
[3]
  cytoxicity to lymphocytes LcV, LC50: 7.50 µM
[3]; highest concentration 10 μg/mL
  cytoxicity to lymphocytes LcV, LC50: 8.10 µg/mL

## CC[C@H](C)[C@H]1NC(=O)[C@@H](NC(=O)[C@@H](CC(C)C)N(C)C(=O)OCc2ccccc2)[C@@H](C)OC(=O)[C@H](Cc2ccc(OC)cc2)N(C)C(=O)[C@@H]2CCCN2C(=O)[C@H](CC(C)C)NC(=O)[C@@H](C)C(=O)[C@H](C(C)C)OC(=O)C[C@H]1O [Compound 4, Z-[(3R,4R,5S)Ist^2]Didemnin A] (Cbz-[dNMeL]T[X6]LP[NMeY](Me); ester 2-C)
[1]
  cytotoxicity to lymphocytes LbV, LC50: 0.22 µM
[2]
  two-way mixed lymphocyte reaction (MLR) suppression MLR, IC50: 0.019 µg/mL
  IC50: 0.018 µM
[3]
  cytoxicity to lymphocytes LcV, LC50: 9.00 µM
[3]; highest concentration 10 μg/mL
  cytoxicity to lymphocytes LcV, LC50: 9.70 µg/mL

## CC[C@@H](C)[C@H]1NC(=O)[C@@H](NC(=O)[C@@H](CC(C)C)N(C)C(=O)OCc2ccccc2)[C@@H](C)OC(=O)[C@H](Cc2ccc(OC)cc2)N(C)C(=O)[C@@H]2CCCN2C(=O)[C@H](CC(C)C)NC(=O)[C@@H](C)C(=O)[C@H](C(C)C)OC(=O)C[C@@H]1O [Compound 5, Z-[(3S,4R,5R)-Ist^2]Didemnin A] (Cbz-[dNMeL]T[X5]LP[NMeY](Me); ester 2-C)
[1]
  cytotoxicity to lymphocytes LbV, LC50: 0.012 µM
[2]
  two-way mixed lymphocyte reaction (MLR) suppression MLR, IC50: 0.0003 µg/mL
  IC50: 0.00028 µM
[3]
  cytoxicity to lymphocytes LcV, LC50: > 9.3 µM
[3]; highest concentration 10 μg/mL
  cytoxicity to lymphocytes LcV, LC50: > 10 µg/mL

## CC[C@H](C)[C@@H]1NC(=O)[C@@H](NC(=O)[C@@H](CC(C)C)N(C)C(=O)OCc2ccccc2)[C@@H](C)OC(=O)[C@H](Cc2ccc(OC)cc2)N(C)C(=O)[C@@H]2CCCN2C(=O)[C@H](CC(C)C)NC(=O)[C@@H](C)C(=O)[C@H](C(C)C)OC(=O)C[C@@H]1O [Compound 6, Z-[(3S,4S,5S)-Ist^2]Didemnin A] (Cbz-[dNMeL]T[X3]LP[NMeY](Me); ester 2-C)
[1]
  cytotoxicity to lymphocytes LbV, LC50: 2.6 µM
[2]
  two-way mixed lymphocyte reaction (MLR) suppression MLR, IC50: 0.29 µg/mL
  IC50: 0.27 µM
[3]
  cytoxicity to lymphocytes LcV, LC50: > 9.3 µM
[3]; highest concentration 10 μg/mL
  cytoxicity to lymphocytes LcV, LC50: > 10 µg/mL

## CC[C@H](C)[C@H]1NC(=O)[C@@H](NC(=O)[C@@H](CC(C)C)N(C)C(=O)[C@@H]2CCCN2C(=O)[C@H](C)O)[C@@H](C)OC(=O)[C@H](CC2CCC(OC)CC2)N(C)C(=O)[C@@H]2CCCN2C(=O)[C@H](CC(C)C)NC(=O)[C@@H](C)C(=O)[C@H](C(C)C)OC(=O)C[C@@H]1O (stereo partly drawn) [Compound 15, [H6 Me2 Tyr6]Didemnin B]
[1]
  cytotoxicity to lymphocytes LbV, LC50: 0.0016 µM
[2]
  two-way mixed lymphocyte reaction (MLR) suppression MLR, IC50: 0.00081 µg/mL
  IC50: 0.00072 µM

## O=P1(N(CCCl)CCCl)NCCCO1 (stereo not drawn) [Cyclophosphamide, reference compound]
[4]
  alive day 8: 100%
  body weight change day 5: -2.5 g
  body weight day 5 (g ± SD): 13.8 ± 0.4 g
  index (spleen wt. treated/spleen wt. syngenetic injection): 0.14
  mean group spleen wt. normalized to day 8 body weight: 0.4
